Experimental findings from patent US7964624B1, “Inhibitors of serine proteases” (priority 2005, dated 2011) are described below.

What all share (test): Determination of Km and Vmax for peptide substrates
One data set concerns the target T1, HCV NS3 protease domain (Hepatitis C virus genotype 1b, UniProt Q9WMX2).
T1 construct: The first 181 amino acids of NS3 (residues 1027-1207 of the viral polyprotein); hexa-histidine (C); made in house; host or cells: E. coli BL21/DE3 pLysS
It counts as biochemical. The note with it: enzyme NS3 protease domain; peptide substrate varied 3-200 μM; Michaelis-Menten fit. The method, then:
This assay is a modification of that described by Landro, et al. (Landro J A, Raybuck S A, Luong Y C, O'Malley E T, Harbeson S L, Morgenstern K A, Rao G and Livingston D L. Biochemistry 1997, 36, 9340-9348), and uses a peptide substrate (NS5AB), based on the NS5A/NS5B cleavage site for genotype 1a HCV. The substrate stock solution (25 mM) was prepared in DMSO containing 0.2 M DTT and stored at −20° C. A synthetic peptide cofactor (KK4A) was used as a substitute for the central core region of NS4A. The reaction was performed in a 96-well microtiter plate format using 25 ηM to 50 ηM HCV NS3 protease domain in buffer containing 50 mM HEPES pH 7.8, 100 mM NaCl, 20% glycerol, 5 mM DTT and 25 μM KK4A. The final DMSO concentration was no greater than 2% v/v. […]
The SMSY product was separated from substrate and KK4A using a microbore separation method. […] The SMSY product peak was quantitated using the data collected at […].
To determine the kinetic parameters Km and Vmax, the HCV NS3 protease domain or HCV NS3•4A was reacted with peptide substrate under the assay conditions described above. […] The ratio of the product peak area (as determined by reverse phase HPLC) to the reaction time yielded a rate of enzyme catalyzed hydrolysis. […] The value of kcat was determined from Vmax using the nominal protease concentration and a fully cleaved substrate peptide as an instrument calibration standard.

Another data set addresses T2, HCV NS3•4A (Hepatitis C virus genotype 1a, UniProt P27958).
T2 construct: hexa-histidine (N); made in house; host or cells: Sf9 insect cells (baculovirus, pVL1392)
It counts as biochemical, HCV sub-type strain 1a. The note with it: enzyme NS3•4A; peptide substrate varied 3-200 μM; Michaelis-Menten fit. The method, then:
(§1) This assay follows the cleavage of a peptide substrate by full-length hepatitis C viral protein NS3•4A. One of three peptide substrates based on the NS5A/NS5B cleavage site for genotype 1a HCV is used to measure enzyme activity. All substrate stock solutions (25 mM) were prepared in DMSO containing 0.2M DTT and stored at −20° C. A synthetic peptide cofactor (NS4A Peptide) was used to supplement NS4A. Peptide sequences are shown below. The hydrolysis reaction was performed in a 96-well microtiter plate format using 100 ηM to 125 ηM HCV NS3•4A in buffer containing 50 mM HEPES pH 7.8, 100 mM NaCl, 20% glycerol, 5 mM DTT and 25 μM NS4A Peptide. The final DMSO concentration was no greater than 2% v/v. Reactions using NS5AB or NS5AB-EDANS as substrate were quenched by the addition of 10% trifluoroacetic acid (TFA) to yield a final TFA concentration of 2.5%. Reactions using FITC-NS5AB-1 as substrate were quenched by the addition of 0.4M formic acid to yield a final concentration of 0.08M acid.
(§2) Enzymatic activity was assessed by separation of substrate and products by reverse phase HPLC. The instrument used was a Agilent 1100 with a G1322A degasser, either a G1312A binary pump or a G1311A quaternary pump, a G1313A autosampler, a G1316A column thermostated chamber, a G1321A fluorescence detector and a G1315A diode array detector. The column thermostat was at 40° C. […] The C-terminal product peak (NH2-SMSY-COOH) was quantitated using the absorbance data collected at 210 ηm. […] The C-terminal product peak (NH2-SMSYT-Asp(EDANS)-KKK-COOH) was quantitated using the fluorescence data collected at 350 ηm excitation/490 ηm emission. […] The N-terminal product peak (FITC-Ahx-EDVV-(alpha)Abu-C—COOH) was quantitated using the fluorescence data collected at 440 nm excitation/520 nm emission. Alternatively, the ratio of N-terminal product to unreacted FITC-NS5AB-1 substrate was determined using a Caliper LabChip 3000 with detection at 488 nm excitation/530 nm emission, using a chip buffer of 100 mM Tris pH 7.0, 10 mM EDTA, 0.01% (v/v) Brij-35, and 0.1% (v/v) CR-3. […]

Data set [1] has as its system CC[C@H](NC(=O)[C@@H](NC(=O)[C@@H](NC(=O)[C@H](CC(=O)O)NC(=O)[C@@H](N)CCC(=O)O)C(C)C)C(C)C)C(=O)N[C@@H](CS)C(=O)N[C@@H](CO)C(=O)N[C@@H](CCSC)C(=O)N[C@@H](CO)C(=O)N[C@@H](Cc1ccc(O)cc1)C(=O)N[C@H](C(=O)N[C@@H](CC(=O)NCCNc1cccc2c(S(=O)(=O)O)cccc12)C(=O)N[C@@H](CCCCN)C(=O)N[C@@H](CCCCN)C(=O)N[C@@H](CCCCN)C(=O)O)[C@@H](C)O. It counts as biochemical, HCV sub-type strain 1a. The note with it: other: enzyme NS3•4A; peptide substrate varied 3-200 μM; Michaelis-Menten fit; 40.0 °C. The method, then: as §1, §2

Where a SMILES comes first, the peptide text is derived from it. [ ]: non-standard residue; d: D form. Abu = CC[C@H](N)C(=O)O

The term Km denotes the substrate concentration at which the rate is half of its maximum. Consider `CC[C@H](NC(=O)[C@@H](NC(=O)[C@@H](NC(=O)[C@H](CC(=O)O)NC(=O)[C@@H](N)CCC(=O)O)C(C)C)C(C)C)C(=O)N[C@@H](CS)C(=O)N[C@@H](CO)C(=O)N[C@@H](CCSC)C(=O)N[C@@H](CO)C(=O)N[C@@H](Cc1ccc(O)cc1)C(=O)O` [DomainNS5AB] (H-EDVV[Abu]CSMSY-OH), for which the Km at HCV NS3 protease domain was 25 µM. For the compound `CC[C@H](NC(=O)[C@@H](NC(=O)[C@@H](NC(=O)[C@H](CC(=O)O)NC(=O)[C@@H](N)CCC(=O)O)C(C)C)C(C)C)C(=O)N[C@@H](CS)C(=O)N[C@@H](CO)C(=O)N[C@@H](CCSC)C(=O)N[C@@H](CO)C(=O)N[C@@H](Cc1ccc(O)cc1)C(=O)O` [NS5AB, NH2-EDVV-(alpha)Abu-CSMSY-COOH] (H-EDVV[Abu]CSMSY-OH), the Km at HCV NS3•4A was determined as 30 µM.

In general, kcat/Km refers to the turnover number divided by the Michaelis constant. Take “HCV NS3•4A (Hepatitis C virus (isolate H77))”: in data set [1], the Km came out at 56 µM and the kcat/Km turned out to be 1400 M⁻¹ s⁻¹.
